For orientation: Ki means the equilibrium dissociation constant of an inhibitor or competing ligand from its target. A higher Ki goes with lower affinity.

The values that follow come from ChEMBL document CHEMBL1131425 (J Med Chem, 1998).

The target in assay [1] is T1, 5-hydroxytryptamine receptor 1A (Rattus norvegicus, UniProt P19327).
T1 sequence (P19327 whole entry): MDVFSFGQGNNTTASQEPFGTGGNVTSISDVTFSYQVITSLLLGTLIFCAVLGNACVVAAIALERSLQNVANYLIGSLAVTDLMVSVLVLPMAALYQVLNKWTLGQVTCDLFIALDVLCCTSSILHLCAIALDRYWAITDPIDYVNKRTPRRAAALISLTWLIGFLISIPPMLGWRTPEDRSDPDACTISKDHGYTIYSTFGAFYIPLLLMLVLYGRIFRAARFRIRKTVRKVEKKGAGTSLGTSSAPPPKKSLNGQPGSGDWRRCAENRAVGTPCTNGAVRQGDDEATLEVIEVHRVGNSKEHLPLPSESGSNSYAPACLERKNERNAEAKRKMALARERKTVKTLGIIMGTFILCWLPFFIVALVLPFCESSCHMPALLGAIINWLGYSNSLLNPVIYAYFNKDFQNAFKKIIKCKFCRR
As to the kind of experiment: Binding affinity against rat 5-hydroxytryptamine 1A receptor in CHO cells. Type of assay: cell-based.

In assay [2] the target is 5-hydroxytryptamine receptor 2A (Rattus norvegicus, UniProt P14842). The experiment in a line: Binding affinity against rat 5-hydroxytryptamine 2A receptor in NIH3T3 cells. Type of assay: cell-based.
Assay [3] deals with T2, 5-hydroxytryptamine receptor 2C (Rattus norvegicus, UniProt P08909).
T2 sequence (P08909 whole entry): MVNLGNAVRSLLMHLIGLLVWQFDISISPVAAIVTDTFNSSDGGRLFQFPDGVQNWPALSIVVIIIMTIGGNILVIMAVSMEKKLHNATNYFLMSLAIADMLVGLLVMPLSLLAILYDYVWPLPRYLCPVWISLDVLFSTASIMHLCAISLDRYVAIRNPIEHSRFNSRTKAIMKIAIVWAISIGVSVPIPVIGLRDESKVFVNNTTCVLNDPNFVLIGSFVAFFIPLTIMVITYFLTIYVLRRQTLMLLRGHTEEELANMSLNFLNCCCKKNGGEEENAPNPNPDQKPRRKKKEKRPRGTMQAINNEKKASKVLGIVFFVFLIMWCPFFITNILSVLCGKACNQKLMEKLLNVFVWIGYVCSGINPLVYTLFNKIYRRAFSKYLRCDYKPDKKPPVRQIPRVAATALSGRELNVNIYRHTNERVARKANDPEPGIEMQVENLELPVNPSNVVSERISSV
As to the kind of experiment: Binding affinity against rat 5-hydroxytryptamine 2C receptor in A-9 cells. Type of assay: cell-based.

A further assay has as its target D(2) dopamine receptor (Rattus norvegicus, UniProt P61169). As to the kind of experiment: Binding affinity against rat Dopamine receptor D2.

Sequence of 5-hydroxytryptamine receptor 2A (P14842 whole entry): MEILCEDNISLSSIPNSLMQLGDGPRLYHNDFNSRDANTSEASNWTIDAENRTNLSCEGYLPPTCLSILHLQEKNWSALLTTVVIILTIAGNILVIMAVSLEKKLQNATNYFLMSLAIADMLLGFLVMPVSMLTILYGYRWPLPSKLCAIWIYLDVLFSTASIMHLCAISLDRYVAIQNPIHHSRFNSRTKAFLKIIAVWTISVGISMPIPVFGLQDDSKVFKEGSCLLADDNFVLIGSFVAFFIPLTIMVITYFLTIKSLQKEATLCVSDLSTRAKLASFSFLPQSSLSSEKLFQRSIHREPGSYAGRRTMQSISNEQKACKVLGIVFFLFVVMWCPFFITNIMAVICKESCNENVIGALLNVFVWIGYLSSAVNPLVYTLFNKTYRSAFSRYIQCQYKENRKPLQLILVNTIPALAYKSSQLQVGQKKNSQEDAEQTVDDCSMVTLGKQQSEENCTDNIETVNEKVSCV
Sequence of D(2) dopamine receptor (P61169 whole entry): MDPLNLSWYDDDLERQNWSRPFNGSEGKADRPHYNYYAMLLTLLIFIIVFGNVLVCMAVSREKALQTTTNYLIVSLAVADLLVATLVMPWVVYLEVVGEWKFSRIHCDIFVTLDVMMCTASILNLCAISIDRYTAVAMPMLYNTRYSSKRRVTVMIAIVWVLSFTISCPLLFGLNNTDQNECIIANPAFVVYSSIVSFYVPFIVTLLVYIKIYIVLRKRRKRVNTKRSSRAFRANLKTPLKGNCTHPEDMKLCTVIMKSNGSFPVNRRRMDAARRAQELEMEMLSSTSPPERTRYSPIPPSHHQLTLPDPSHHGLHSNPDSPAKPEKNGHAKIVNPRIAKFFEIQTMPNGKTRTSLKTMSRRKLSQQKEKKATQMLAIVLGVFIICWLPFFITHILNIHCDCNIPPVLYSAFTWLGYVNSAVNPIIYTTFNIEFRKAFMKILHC

For `O=C(CCCN1CCC2(CC1)NCNC2=O)c1ccc(F)cc1`, the Ki in assay [1] is above 10000 nM; in assay [2], 5600 nM; in assay [3], above 10000 nM.

As to `CN1CN(C)C2(CCN(CCCC(=O)c3ccc(F)cc3)CC2)C1=O`, the Ki is above 10000 nM in assay [1], 45 nM in assay [2], above 10000 nM in assay [3] and 300 nM at D(2) dopamine receptor.

As for `CN1CN(Cc2ccccc2)C(=O)C12CCN(CCCC(=O)c1ccc(F)cc1)CC2`, the Ki in assay [1] was found to be 265 nM; in assay [2], 22 nM; in assay [3], 1400 nM.

With `CC(C)N1CN(C)C2(CCN(CCCC(=O)c3ccc(F)cc3)CC2)C1=O`, the inhibition constant Ki in assay [1] is 6300 nM; in assay [2], 7 nM; in assay [3], above 10000 nM; on D(2) dopamine receptor it was 46 nM.

Take `CNC1(C(N)=O)CCN(CCCC(=O)c2ccc(F)cc2)CC1`: the values for the Ki in assay [1], in assay [2] and in assay [3] were above 10000 nM, 130 nM and 4480 nM, respectively.

`CC(C)NC1(C(N)=O)CCN(CCCC(=O)c2ccc(F)cc2)CC1`: the inhibition constant (Ki) is above 10000 nM in assay [1], 14 nM in assay [2], 426 nM in assay [3] and 400 nM at D(2) dopamine receptor.

With `O=C(CCCN1CCC2(CC1)C(=O)NCN2C1CCCCC1)c1ccc(F)cc1`, the inhibition constant Ki in assay [2] amounted to 0.7 nM; in assay [3] it was 677 nM; on D(2) dopamine receptor it was 0.7 nM.

`CCCCN1CN(C)C2(CCN(CCCC(=O)c3ccc(F)cc3)CC2)C1=O`: the inhibitory constant (Ki) is above 10000 nM in assay [1], 19 nM in assay [2], above 10000 nM in assay [3] and 13 nM on D(2) dopamine receptor.

Regarding `CN1CNC(=O)C12CCN(CCCC(=O)c1ccc(F)cc1)CC2`, the Ki in assay [1] was above 10000 nM; in assay [2], 23 nM; in assay [3], above 10000 nM; at D(2) dopamine receptor, 220 nM.

With `CCCN1CN(C)C2(CCN(CCCOc3ccc(F)cc3)CC2)C1=O`, the Ki in assay [1] is above 10000 nM; in assay [2], 19 nM; in assay [3] it was above 10000 nM; at D(2) dopamine receptor, 230 nM.

As for `CCCN1CN(C)C2(CCN(CCCC(=O)c3ccc(F)cc3)CC2)C1=O`, the inhibition constant (Ki) in assay [1] was above 10000 nM; in assay [2] it was 20 nM; in assay [3], above 10000 nM; on D(2) dopamine receptor it was 130 nM.

On to `CN1CNC(=O)C12CCN(CCCOc1ccc(F)cc1)CC2`, for which the results for the Ki (in assay [2]; in assay [3]; at D(2) dopamine receptor) were 35 nM, above 10000 nM and 734 nM, respectively.

`CCN1CNC(=O)C12CCN(CCCC(=O)c1ccc(F)cc1)CC2`: the Ki in assay [1] was 7960 nM; in assay [2] it was 170 nM; in assay [3], above 10000 nM; at D(2) dopamine receptor, 170 nM.

For `CCN1CN(C)C2(CCN(CCCC(=O)c3ccc(F)cc3)CC2)C1=O`, the Ki was above 10000 nM in assay [1], 21 nM in assay [2] and above 10000 nM in assay [3].

In the case of `NC(=O)C1(NC2CCCCC2)CCN(CCCC(=O)c2ccc(F)cc2)CC1`, the inhibition constant (Ki) in assay [1] was 1610 nM; in assay [2], 6 nM; in assay [3], 270 nM; on D(2) dopamine receptor it was 43 nM.

For the compound `CC(C)N1CNC(=O)C12CCN(CCCC(=O)c1ccc(F)cc1)CC2`, the Ki in assay [1] is 2340 nM; in assay [2], 38 nM; in assay [3], above 10000 nM; at D(2) dopamine receptor, 400 nM.

On to `NC(=O)C1(N)CCN(CCCC(=O)c2ccc(F)cc2)CC1`, for which the results for the inhibition constant (Ki) in assay [2] and in assay [3] were 420 nM and above 10000 nM, respectively.

`O=C(CCCN1CCC2(CC1)C(=O)NCN2c1ccccc1)c1ccc(F)cc1` [SPIPERONE] returned an inhibition constant (Ki) in assay [1] of 58 nM.
